This note sets out measurements from patent US20040229246A1, “Diagnostic markers for therapeutic treatment” (Can-Fite Biopharam Ltd., priority 2002, published 2004).

Assay [1] deals with PKAc, PKB/Akt, β-catenin, c-myc, cyclin D1, NF-κB, GSK-3β. Description: Immunoblot analysis of protein extracts of HCT-116 human colon carcinoma cells. It counts as cell-based. The note with it: HCT-116 cells, compared to control. On the procedure: (§1) To detect the level of expression of the A3AR proteins Western blot analysis was performed. Cells were incubated in the presence and absence of IB-MECA (10 nM), MRS1523 (10 nM), Forskolin (50 nM), 8 Br cAMP (100 μM), Cycloheximide 20 μg/ml or MG 132 (20 nM) for different time periods at 37° C. Cells were then rinsed with ice-cold PBS and transferred to ice-cold lysis buffer (TNN buffer, 50 mM Tris buffer pH=7.5, 150 mM NaCl, NP 40). In the experiment examining the effect of trypsin on A3AR expression, cells were incubated with 0.5 ml of 0.25% trypsin for 5 minutes. The trypsinized cells were washed again with ice-cold PBS, harvested by centrifugation and subjected to lysis in TNN buffer. Cell debris was removed by centrifugation for 10 minutes, at 7500 xg. The supernatant was utilized for Western Blot analysis. Protein concentrations were determined using the Bio-Rad protein assay dye reagent. Equal amounts of the sample (50 μg) were separated by SDS-PAGE, using 12% polyacrylamide gels. The resolved proteins were then electroblotted onto nitrocellulose membranes (Schleicher & Schuell, Keene, NH, USA). Membranes were blocked with 1% bovine serum albumin and incubated with the desired primary antibody (dilution 1:1000) for 24 hours at 4° C. Blots were then washed and incubated with a secondary antibody for 1 hour at room temperature. Bands were recorded using BCIP/NBT color development kit (Promega, Madison, W1, USA). Data presented in the different figures are representative of at least three different experiments.
The effect of IB-MECA on key proteins downstream to A3AR activation in HCT-116 human colon carcinoma cells was also examined in a manner similar to that performed with melanoma cells (see above). FIG. 7 presents Immunoblot analysis of protein extracts derived from colon carcinoma cell, wherein treatment with IB-MECA (right lane) caused down-regulation of PKAc, PKB/Akt, β-catenin, c-myc and cyclin D1 and NF-κB and up-regulation of GSK-3β expression level as compared to control (left lane).
(In western blotting, separated proteins are transferred to a membrane and probed.)

Assay [2] has as its system PKA, PKB/Akt, GSK-3β, β-catenin, cyclin D1, c-myc, NF-κB. Description: Western blot of cell growth regulatory proteins in B16-F10 melanoma tumor lesions. It is filed as in vivo, mice. As for the experimental part: as §1
(§2) Melanoma: C57BL/6J, male mice (Harlan Laboratories, Jerusalem, Israel) aged 2 months, weighing an average of 25 g were used. B16-F10 (2.5×105) melanoma cells were subcutaneously (s.c.) injected to the flank of the mice. IB-MECA at a dose of 100 μg/kg body weight was administered orally once daily, starting 24 hours after tumor cells' inoculation. The control group was treated daily, orally, with the vehicle only. Mice were sacrificed after 15 days, tumor lesions were excise and protein was extracted for measurements as described above. The tumor size (width (W) and length (L)) was measured with a caliber and calculated according to the following formula: Tumor Size =(W)2xL/2. Each group contained 15 mice and the study was repeated 3 times.

Another assay deals with B16-F10 melanoma. Description: B16-F10 melanoma tumor growth in mice. It counts as in vivo. To be noted: 100 μg/kg orally once daily, 15 days, p<0.0001. On the procedure:
as §2
Consequently, an increase in the total GSK-3β level was noted, thereby leading to a decrease in the level of β-catenin.

Assay [3] deals with HCT-116 human colon carcinoma. Description: HCT-116 human colon carcinoma development in mice. It is filed as in vivo. The note with it: mice inoculated with HCT-116, 10 μg/kg orally daily. As for the experimental part:
(§3) Colon Carcinoma: Nude/BalbC male, 10-week-old mice were used. HCT-116 Human colon carcinoma cells (1.2×10^6 cells in 100 μL PBS) were inoculated subcutaneously to the flank of the mice. Treatment was initiated when tumors reached a size of ˜150 mm^3. Each group contained 10 mice, the control group treated with vehicle only, while the test group was administered daily orally with IB-MECA (10 μg/kg).
(§4) After 32 days the mice were sacrificed, tumor lesions were excise and protein was extracted for measurements as described above. Tumor size was evaluated by measuring with a caliber width (W) and length (L) and calculated according to the above formula.

The subject of assay [4] is A3AR, GSK-3β, cyclin D1, c-myc. In words: Western blot of regulatory proteins in HCT-116 tumor lesions excised from mice. It counts as in vivo. As for the experimental part:
as §1, §3, §4

As to `CNC(=O)[C@H]1O[C@@H](n2cnc3c(NCc4cccc(I)c4)ncnc32)[C@H](O)[C@@H]1O` [IB-MECA, 1-deoxy-1-[6[[(3-iodophenyl)methyl]amino]-9H-purine-9-yl]-N-methyl-β-D-ribofura-nuronaminde], in assay [1], the GSK-3β expression level result is “up-regulation”, the NF-κB level result is reported as “down-regulation”, the PKAc level result is listed as “down-regulation” and the PKB/Akt level entry is “down-regulation”. In assay [1], the c-myc level result was “down-regulation”, the “cyclin D1 level” value is given as “down-regulation” and the β-catenin level entry is given as “down-regulation”. In assay [2], the NF-κB level result is “down-regulated”, the PKA level result is “decreased”, the PKB/Akt level result is “decreased” and the c-myc level entry was “down-regulated”. In assay [2], the “cyclin D1 level” value is “down-regulated”, the “total GSK-3β level” value was “increase” and the β-catenin level result is recorded as “decrease”. The “inhibition of B16-F10 melanoma tumor growth” value with B16-F10 melanoma is reported as 76%. For the same compound, the “development of colon carcinoma (tumor size)” value in assay [3] is “markedly suppressed”. Further, in assay [4], the A3AR level entry is given as “down-regulation”, the GSK-3β expression level entry is “up-regulation”, the c-myc level entry was “decrease” and the “cyclin D1 level” value is recorded as “decrease”.
